# Experimental data: US11098039B2, “Benzodiazepine product with activity on the central nervous and vascular systems” (UNIVERSIDAD DE LA HABANA, priority 2016, dated 2021)
# Entries after “also recorded” stand apart in the source; their conditions may differ.
# Assays:
# rats = assay: 5% formalin test (tonic pain), Phase II; format: in vivo; conditions: Phase II (15-45 min), flumazenil pre-treatment study
# Procedure: We studied the effect of JM-20 (10, 20, 40 mg/Kg, p.o) on behaviors related to pain in a tonic pain model (5% formalin test) in rats. (Dubuisson D, Dennis S G. The formalin test: a quantitative study of the analgesic effects of morphine, meperidine and brain-stem stimulation in rats and cats. Pain 1977; 4:161-174).
# Each column represents the reaction time of 6-10 animals per group as the mean±EEM, * P<0.05, ***P<0.001 represents the statistical differences between treated and control groups (only vehicle), ****P<0.05 represents statistical differences between groups treated with diazepam in the presence or absence of flumazenil, 1p<0.05 represents statistical differences between groups treated with JM-20 in the presence or absence of flumazenyl.
# male Wistar rats [1] = assay: Exploratory Activity Test (vertical exploration) after unilateral 6-OHDA lesion; format: in vivo; conditions: 6-OHDA damage, after 7 days of treatment, statistically different at 40 mg/Kg versus untreated injured animals
# Procedure: (§1) Male adult Wistar rats were used, weighing between 200 and 250 grams at the start of the experiment, coming from the National Laboratory Animal Production Center (CENPALAB), Havana, Cuba. The animals were kept at the Center for the Research and Development of Medicines (CIDEM) in plastic translucent boxes at an average temperature of 23° C. (22±2° C.), with food and water supplies ad libitum and 12-hour periods of light and dark.
# JM-20 was administered in 3 different doses: 10, 20 and 40 mg/Kg, 24 hours after inducing damage and on a daily basis for 7 days. The compound was prepared in carboxymethylcellulose (CMC) at 0.05%, intragastrically with a cannula. […]
# In order to assess the vertical exploratory activity of animals we used the Exploratory Activity Test; the animal is placed in a clear Plexiglas cubicle, 41×41×33 (h) cm, (UGO BASILE, MultipleActivityCage Cat. No. 47420. Data output is managed by 52050-04 Data Acquisition Software Package (Windows® based). The cubicle is supported on a robust base made of black Plexiglas that has 4 vertical steel bars with steel grooves so that the horizontal/vertical detection systems are correctly affixed. The sensors are IR light emission systems capable of registering animal movements by shapes, or rather vertical exploration. Data is monitored on a computer. […]
# CCI rats = assay: Histology of sciatic nerve (Wallerian degeneration) in chronic constriction injury (CCI) model; format: in vivo; conditions: JM-20 20 mg/Kg p.o., repeated doses for 7 days starting Day 7 post-CCI, 14 days after surgery, H/E and luxol fast blue
# Source text: We studied the effect of JM-20 on the chronic constriction of the sciatic nerve model (CCI), an NP model (Bennett M I, Rayment C, Hjermstad M, Aass N, Caraceni A, Kaasa S. Prevalence and aetiology of neuropathic pain in cancer patients: A systematic review. Pain 2012; 153:359-365) Results are presented in FIG. 19-23.
# A, B and C show the longitudinal section of the sciatic nerve 5 mm distal to the lesion on CCI Sham rats, CCI treated with JM-20 and treated with vehicle respectively (H/E coloration). We can observe the increase in cellularity in CCI animals relatively compared with sham operated animals as the result of the proliferation of Schawann cells and the infiltration of macrophages and the loss of an orderly alignment of axons associated to their myelin sheathes as compared to the sham-CCI. The arrow indicates one of the many digestion chambers of Schawann cells containing a myelin ovoid (reddish oval mass). D, E, F show sections from the same animals but they are colored by the luxol fast blue (LFB) technique, a specific technique for myelin tincture.
# OF-1 mice = assay: Memory loss induced by beta amyloid 25-35 peptide oligomers (in vivo); conditions: JM-20 administered 7 days after beta amyloid administration; 10 and 30 mg/kg orally for 10 days; Aβ 100 pmol i.c.v.
# Procedure: For the different studies JM-20 was suspended in carboxymethyl cellulose (CMC) 0.05% and administered orally. Scopolamine bromide was dissolved in the 0.9% saline solution and administered intraperitoneally (1 mg/kg, 4 mL/Kg of weight). Aluminum chloride was dissolved in common drinking water for the experimental subjects and administered orally in a 500 mg/Kg peso dose, in chronic form for one month and while behavioral studies were conducted. Beta amyloid peptides (25-35) were oligomerized and made soluble according to the manufacturer's norms and administered via intracerebroventricular means at 100 pmols in 5 uL, into the right cerebral hemisphere.
# In vivo experiments corresponding to the scopolamine and aluminum model used Wistar rats (males, 230-260 g), while in vivo experiments corresponding to the beta amyloid model used OF-1 mice (males, 25-30 g). All the animals came from the National Laboratory Animal Production Center (CENPALAB, Mayabeque, Cuba) and after their arrival they underwent adaptation to laboratory conditions for 7 days. […]
# Subsequently we conducted in vivo studies on OF-1 mice. We assessed the effect of JM-20 on memory loss induced by beta amyloid oligomers administered 7 days after the intracerebroventricular administration of Aβ (100 pmols) during 10 days, orally in 10 and 30 mg/kg weight doses. […]
# male Wistar rats [2] = assay: Cylinder test after unilateral 6-OHDA lesion of the substantia nigra pars compacta; format: in vivo; conditions: 6-OHDA damage, after 7 days of treatment
# Procedure: as §1
# JM-20 was administered in 3 different doses: 10, 20 and 40 mg/Kg, 24 hours after inducing damage and on a daily basis for 7 days. The compound was prepared in carboxymethylcellulose (CMC) at 0.05%, intragastrically with a cannula. There were 5 experimentation groups: Group I (vehicle/saline with ascorbic acid, n=6), Group II (animals affected with 6-OHDA, n=8), Group III (animals affected with 6-OHDA and co-treated with 10 mg/Kg JM-20, n=8), Group IV (animals affected with 6-OHDA and co-treated with 20 mg/Kg JM-20, n=8) and Group V (animals affected with 6-OHDA and co-treated with 40 mg/Kg JM-20 n=8). All behavioral studies were run at 7 days.
# For the purpose of proceeding to unilateral dopaminergic denervation of the striate body (right hemisphere) the rats were anesthetized with Chloral Hydrate [0.4 g/kg weight, i.p., Merck (Darmstadt, Germany)] and placed into a frame designed for stereotactic surgery (Stoelting Instruments, USA.), where they were injected in the right substantia nigra pars compacta with saline solution neurotoxin 6-OHDA-HBr (8 μg/3 μL, also containing 0.2 mg/ml of ascorbic acid as an antioxidant) (Pavón Fuentes, Nancy (2007) Efecto de la inactivación de los receptores dopaminérgicos D2 y de la manipulación del núcleo subtalámico sobre la conducta motora en modelos de hemiparkinsonismo en roedores. Doctor en Ciencias de una Especialidad, Universidad de Ciencias Médicas de La Habana). Coordinates were calculated taking Bregma as a point of reference in accordance with the Paxinos and Watson Atlas [Paxinos, G. and Watson, C., The rat brain in stereotaxic coordenates. 2nd the Academic Press. New York, 1986], referred to in Table 1. […]
compound,measurement,setting,value
"CCOC(=O)C1=C(C)NC2=C(C=Nc3ccccc3N2)C1c1ccccc1[N+](=O)[O-] (stereo not shown) [JM-20, 3-etoxicarbonil-2-methyl-4-(2-nitrofeenil)-4,11-dihydro-1H-pirido[2,3-b][1,5] benzodiacepine]",effect on Phase II of the 5% formalin test,rats,antihypernociceptive effect
same,vertical exploration,male Wistar rats [1],increased their vertical exploration
same,"histological changes induced by CCI (Wallerian degeneration): nerve fiber disorganization, cell number, myelin sheath degradation",CCI rats,reduced disorganization of the nerve fibers induced by CCI; also recorded: Reduction in CCI-induced nerve fiber disruption and cell count increase and myelin sheath degradation
same,memory loss induced by beta amyloid 25-35 peptide oligomers,OF-1 mice,reverts memory loss
same,use of the paw contralateral to the damage,male Wistar rats [2]; JM-20 40 and 20 mg/Kg,increased use of the paw contralateral to the damage; also recorded: increased use of contralateral leg
same,use of the ipsilateral paw,"male Wistar rats [2]; both doses of JM-20 (40 and 20 mg/Kg), normal values",~50%
same,"% of asymmetry (cylinder test), motor damage",male Wistar rats [2]; versus injured animals without treatment,diminished motor damage; also recorded: decrease in motor damage
